Values of other authors in US6921495B2, “Environmentally compatible defrosting and antifreeze agents for aeroplanes” (Clariant GmbH, priority 2001, dated 2005).
Like-named read-outs stand apart in the source and are kept apart here.

Row | Compound | LD50 oral rat (rat; oral) | LCO in Brachydanio rerio (Brachydanio rerio; in vivo) | LD50 oral rat (rat; in vivo, po) | LCO in Brachydanio rerio (Brachydanio rerio; Brachydanio rerio)
1 | Tolyltriazole | 675 mg/kg | 42.2 mg/L |  | 
2 | c1ccc2[nH]nnc2c1 [benzotriazole] |  |  | 560 mg/kg | 100 mg/L
